Results reported in ChEMBL document CHEMBL4610038, “The synthesis of trifluoromethylated N-nitroaryl-2-amino-1,3-dichloropropane derivatives and their evaluation as potential anti-cancer agents” (Bioorg Med Chem Lett, 2020).

How the values were obtained:
SW1990 [1] = test: Cytotoxicity against human SW1990 cells assessed as reduction in cell viability; format: functional, cell-based
HCT-116 [2] = test: Cytotoxicity against human HCT116 cells assessed as reduction in cell viability; format: functional, cell-based
HCT-116 [3] = test: Cytotoxicity against human HCT116 cells assessed as cell viability at 100 uM relative to control; format: functional; settings: read-out: Activity
HT-29 [4] = test: Cytotoxicity against human HT-29 cells assessed as reduction in cell viability; format: functional, cell-based
[5] = Cytotoxicity against human MRC5 cells assessed as cell viability at 100 uM relative to control; format: cell-based; settings: read-out: Activity
T47D [6] = test: Cytotoxicity against human T47D cells assessed as cell viability at 100 uM relative to control; format: functional; settings: read-out: Activity
HT-29 [7] = test: Cytotoxicity against human HT-29 cells assessed as cell viability at 100 uM relative to control; format: functional; settings: read-out: Activity
ASPC1 [8] = test: Cytotoxicity against human AsPC1 cells assessed as reduction in cell viability; format: functional, cell-based
SK-BR-3 [9] = test: Cytotoxicity against human SKBR3 cells assessed as reduction in cell viability; format: functional, cell-based
MDA-MB-231 [10] = test: Cytotoxicity against human MDA-MB-231 cells assessed as reduction in cell viability; format: functional, cell-based
MCF-10A = test: Cytotoxicity against human MCF10A cells assessed as reduction in cell viability; format: cell-based
CNE [11] = test: Cytotoxicity against human CNE1 cells assessed as cell viability at 100 uM relative to control; format: functional; settings: read-out: Activity
SH-SY5Y [12] = test: Cytotoxicity against human SH-SY5Y cells assessed as reduction in cell viability; format: functional, cell-based
SK-BR-3 [13] = test: Cytotoxicity against human SKBR3 cells assessed as cell viability at 100 uM relative to control; format: functional; settings: read-out: Activity
NCI-H1299 [14] = test: Cytotoxicity against human H1299 cells assessed as reduction in cell viability; format: functional, cell-based
MDA-MB-468 [15] = test: Cytotoxicity against human MDA-MB-468 cells assessed as reduction in cell viability; format: functional, cell-based
MCF7 [16] = test: Cytotoxicity against human MCF7 cells assessed as reduction in cell viability; format: functional, cell-based
MDA-MB-468 [17] = test: Cytotoxicity against human MDA-MB-468 cells assessed as cell viability at 100 uM relative to control; format: functional; settings: read-out: Activity
BXPC-3 [18] = test: Cytotoxicity against human BxPC3 cells assessed as cell viability at 100 uM relative to control; format: functional; settings: read-out: Activity
BXPC-3 [19] = test: Cytotoxicity against human BxPC3 cells assessed as reduction in cell viability; format: functional, cell-based
SUNE1 [20] = test: Cytotoxicity against human SUNE1 cells assessed as reduction in cell viability; format: functional, cell-based
T47D [21] = test: Cytotoxicity against human T47D cells assessed as reduction in cell viability; format: functional, cell-based
SH-SY5Y [22] = test: Cytotoxicity against human SH-SY5Y cells assessed as cell viability at 100 uM relative to control; format: functional; settings: read-out: Activity
Caco-2 [23] = test: Cytotoxicity against human Caco2 cells assessed as reduction in cell viability; format: functional, cell-based
MDA-MB-231 [24] = test: Cytotoxicity against human MDA-MB-231 cells assessed as cell viability at 100 uM relative to control; format: functional; settings: read-out: Activity
[25] = Cytotoxicity against human HK1 cells assessed as cell viability at 100 uM relative to control; format: functional; settings: HK-1, read-out: Activity
MCF7 [26] = test: Cytotoxicity against human MCF7 cells assessed as cell viability at 100 uM relative to control; format: functional; settings: read-out: Activity
[27] = Cytotoxicity against human MCF10A cells assessed as cell viability at 100 uM relative to control; format: cell-based, MCF-10A; settings: read-out: Activity
ASPC1 [28] = test: Cytotoxicity against human AsPC1 cells assessed as cell viability at 100 uM relative to control; format: functional; settings: read-out: Activity
MRC5 = test: Cytotoxicity against human MRC5 cells assessed as reduction in cell viability; format: cell-based
SW48 [29] = test: Cytotoxicity against human SW48 cells assessed as cell viability at 100 uM relative to control; format: functional; settings: read-out: Activity
CNE [30] = test: Cytotoxicity against human CNE1 cells assessed as reduction in cell viability; format: functional, cell-based
SW48 [31] = test: Cytotoxicity against human SW48 cells assessed as reduction in cell viability; format: functional, cell-based
SUNE1 [32] = test: Cytotoxicity against human SUNE1 cells assessed as cell viability at 100 uM relative to control; format: functional; settings: read-out: Activity
Caco-2 [33] = test: Cytotoxicity against human Caco2 cells assessed as cell viability at 100 uM relative to control; format: functional; settings: read-out: Activity
A549 [34] = test: Cytotoxicity against human A549 cells assessed as reduction in cell viability; format: functional, cell-based
SW1990 [35] = test: Cytotoxicity against human SW1990 cells assessed as cell viability at 100 uM relative to control; format: functional; settings: read-out: Activity
A549 [36] = test: Cytotoxicity against human A549 cells assessed as cell viability at 100 uM relative to control; format: functional; settings: read-out: Activity
NCI-H1299 [37] = test: Cytotoxicity against human H1299 cells assessed as cell viability at 100 uM relative to control; format: functional; settings: read-out: Activity
[38] = Cytotoxicity against human HK1 cells assessed as reduction in cell viability; format: functional, cell-based; settings: HK-1

SMILES | IC50 (SW1990 [1]) | IC50 (HCT-116 [2]) | viability at 100 µM (HCT-116 [3]) | IC50 (HT-29 [4]) | viability at 100 µM [5] | viability at 100 µM (T47D [6]) | viability at 100 µM (HT-29 [7]) | IC50 (ASPC1 [8]) | IC50 (SK-BR-3 [9]) | IC50 (MDA-MB-231 [10]) | IC50 (MCF-10A) | viability at 100 µM (CNE [11]) | IC50 (SH-SY5Y [12]) | viability at 100 µM (SK-BR-3 [13]) | IC50 (NCI-H1299 [14]) | IC50 (MDA-MB-468 [15]) | IC50 (MCF7 [16]) | viability at 100 µM (MDA-MB-468 [17]) | viability at 100 µM (BXPC-3 [18]) | IC50 (BXPC-3 [19]) | other results
O=[N+]([O-])c1ccc(NC(CCl)CCl)cc1 | > 100 µM | > 100 µM | 79.4% | > 100 µM | 44.9% | 65.2% | 60.9% | > 100 µM | > 100 µM | > 100 µM | > 100 µM | 88.1% | > 100 µM | 73.1% | > 100 µM | > 100 µM | 70.2 µM | 45.1% | 82.9% | > 100 µM | IC50 (SUNE1 [20]): > 100 µM; IC50 (T47D [21]): > 100 µM; viability at 100 µM (SH-SY5Y [22]): 65.8%; IC50 (Caco-2 [23]): > 100 µM; viability at 100 µM (MDA-MB-231 [24]): 72.4%; viability at 100 µM [25]: 76.9%; viability at 100 µM (MCF7 [26]): 38.8%; viability at 100 µM [27]: 82.7%; viability at 100 µM (ASPC1 [28]): 67.7%; IC50 (MRC5): 58.3 µM; viability at 100 µM (SW48 [29]): 58.8%; IC50 (CNE [30]): > 100 µM; IC50 (SW48 [31]): > 100 µM; viability at 100 µM (SUNE1 [32]): 110%; viability at 100 µM (Caco-2 [33]): 91.6%; IC50 (A549 [34]): > 100 µM; viability at 100 µM (SW1990 [35]): 55.1%; viability at 100 µM (A549 [36]): 73.5%; viability at 100 µM (NCI-H1299 [37]): 67.4%; IC50 [38]: > 100 µM
O=[N+]([O-])c1ccc(NC(CO)CO)cc1C(F)(F)F | > 100 µM | > 100 µM | 86.8% | > 100 µM | 32.8% | 71.2% | 110% | > 100 µM | > 100 µM | > 100 µM | > 100 µM | 100% | > 100 µM | 79.4% | > 100 µM | > 100 µM | 88.1 µM | 98.7% | 108% | > 100 µM | IC50 (SUNE1 [20]): > 100 µM; IC50 (T47D [21]): > 100 µM; viability at 100 µM (SH-SY5Y [22]): 70.8%; IC50 (Caco-2 [23]): > 100 µM; viability at 100 µM (MDA-MB-231 [24]): 65.7%; viability at 100 µM [25]: 92.8%; viability at 100 µM (MCF7 [26]): 49.7%; viability at 100 µM [27]: 102%; viability at 100 µM (ASPC1 [28]): 87.3%; IC50 (MRC5): 41 µM; viability at 100 µM (SW48 [29]): 78.9%; IC50 (CNE [30]): > 100 µM; IC50 (SW48 [31]): > 100 µM; viability at 100 µM (SUNE1 [32]): 104%; viability at 100 µM (Caco-2 [33]): 96.1%; IC50 (A549 [34]): > 100 µM; viability at 100 µM (SW1990 [35]): 71.5%; viability at 100 µM (A549 [36]): 61.9%; viability at 100 µM (NCI-H1299 [37]): 72.3%; IC50 [38]: > 100 µM
O=[N+]([O-])c1cc(C(F)(F)F)ccc1NC(CO)CO | > 100 µM | > 100 µM | 83.9% | > 100 µM | 64.9% | 68.6% | 95.2% | > 100 µM | > 100 µM | > 100 µM | > 100 µM | 106% | > 100 µM | 66.4% | > 100 µM | > 100 µM | > 100 µM | 100% | 108% | > 100 µM | IC50 (SUNE1 [20]): > 100 µM; IC50 (T47D [21]): > 100 µM; viability at 100 µM (SH-SY5Y [22]): 84.9%; IC50 (Caco-2 [23]): > 100 µM; viability at 100 µM (MDA-MB-231 [24]): 67.3%; viability at 100 µM [25]: 92.9%; viability at 100 µM (MCF7 [26]): 57.4%; viability at 100 µM [27]: 102%; viability at 100 µM (ASPC1 [28]): 81.8%; IC50 (MRC5): > 100 µM; viability at 100 µM (SW48 [29]): 98.8%; IC50 (CNE [30]): > 100 µM; IC50 (SW48 [31]): > 100 µM; viability at 100 µM (SUNE1 [32]): 83.4%; viability at 100 µM (Caco-2 [33]): 89.5%; IC50 (A549 [34]): > 100 µM; viability at 100 µM (SW1990 [35]): 68.5%; viability at 100 µM (A549 [36]): 57.9%; viability at 100 µM (NCI-H1299 [37]): 91.3%; IC50 [38]: > 100 µM
